Results on two compounds are retold here after patent US4232166A, “15-Deoxy-16-hydroxy-17-methylene prostaglandins of the E and F series” (American Cyanamid Company, priority 1979, dated 1980).

Each structure is given as a SMILES string.

Holding throughout (assay type): in vivo
The subject of assay [1] is bronchospasms elicited by serotonin. As to the kind of experiment: Konzett procedure: bronchodilator activity in Guinea-Pigs against bronchospasms elicited by intravenous serotonin. Conditions: Cavia porcellus, three logarithmic cumulative intravenous doses. The procedure: (§1) The bronchodilator activity for representative compounds of this invention was determined in Guinea-Pigs against bronchospasms elicited by intravenous injections of serotonin, histamine, and acetylcholine, by the Konzett procedure the details of which are those discussed by J. Lulling, P Lievens, F. El Sayed and J. Prignot, Arzeimittel-Forschung 18, 995 (1968).
(§2) In the table which follows, bronchodilator activity for representative compounds of the invention against spasmogenic agents serotonin, histamine, and acetylcholine is expressed as an ED50 determined from the results obtained with three logarithmic cumulative intravenous doses.

Assay [2] deals with bronchospasms elicited by acetylcholine. Kind of assay: Konzett procedure: bronchodilator activity in Guinea-Pigs against bronchospasms elicited by intravenous acetylcholine. Conditions: Cavia porcellus, three logarithmic cumulative intravenous doses, read-out: ED50 ACETYL CHOLINE. The procedure: as §1, §2
Assay [3] concerns bronchospasms elicited by histamine. Kind of assay: Konzett procedure: bronchodilator activity in Guinea-Pigs against bronchospasms elicited by intravenous histamine. Particulars: Cavia porcellus, three logarithmic cumulative intravenous doses. The procedure:
as §1, §2

For orientation: ED50 means the dose at which the effect has come halfway, by size or by number of responders. Take `C=C(CCC)C(C)(O)C/C=C/[C@H]1[C@H](O)CC(=O)[C@@H]1C/C=C\CCCC(=O)O` (relative stereo) [dl 9-oxo-11α,16-dihydroxy-16-methyl-17-methylene-5-cis,13-trans-prostadienoic acid]: the ED50 in assay [1] was 2.5 µg/kg; in assay [2], 0.0036 mg/kg; in assay [3], 1.2 µg/kg.

In the case of `C=C(CCC)C(O)C/C=C/[C@H]1[C@H](O)CC(=O)[C@@H]1C/C=C\CCCC(=O)O` (relative stereo) [dl 9-oxo-11α,16-dihydroxy-17-methylene-5-cis, 13-trans-prostadienoic acid], the figures for the median effective dose (ED50) in assay [1], in assay [2] and in assay [3] were 5.4 µg/kg, 0.024 mg/kg and 10.6 µg/kg, respectively.
